Measurements: patent publication US20130225830A1, “POLYMORPHS OF FEBUXOSTAT” (MAPI PHARMA LIMITED, priority 2010, published 2013)
Several values for one entry are separate records, joined by “and”; a condition that tells them apart may be missing. Equal entries are not always repeated.

Tests used:
Format in all cases: physicochemical
[1] = Bulk and tapped density measurements
Outline: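 Febuxostat forms passed through a 1.0 mm screen, weighed into a 10 mL graduated cylinder and leveled without compacting. Bulk density = mass/unsettled volume. Tapped density = mass/final volume after 500 then 750 further taps, Vb accepted when within 2% of Va.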

[2] = Solid stability measurements (appearance, assay and total related substances by HPLC); details: for Remaining (%): one value for both samples, vs −20° C. control; for Appearance / TRS (%): samples 1 and 2
Procedure: The detailed chromatographic conditions are listed hereinbelow. The typical retention time of febuxostat main peak is 8.2 min. [table] Testing conditions: 40° C., 60° C., 40° C./RH 75%, 60° C./RH 75%, light Testing procedure: About 3 mg of a febuxostat form were weighed in a glass vial and stored under the different conditions for 1 week and 2 weeks, separately. The same febuxostat form was stored at −20° C. as control. The test was conducted in duplication. The physical appearance, assay and total related substances of each of the febuxostat forms were measured by HPLC at the end of the first and second weeks.

[3] = Physical stability measurements (XRPD, DSC, TGA)
Procedure: Testing conditions: 40° C., 60° C., 40° C./RH 75%, 60° C./RH 75%, light
Testing procedure: About 50 mg of a febuxostat form were weighed in glass vial for testing the physical stability and were stored under different conditions for 1 week and 2 weeks, separately. The same febuxostat form was stored at −20° C. as control. XRPD, DSC and TGA of each of the febuxostat forms were measured at the end of the first and second weeks.

[4] = Hygroscopicity measurements (DVS sorption/desorption profiles); details: 25° C.

For `Cc1nc(-c2ccc(OCC(C)C)c(C#N)c2)sc1C(=O)O` [Form XI, 2-(3-cyano-4-isobutoxyphenyl)-4-methyl-5-thiazolecarboxylic acid], the “Bulk Density” value [1] was 0.346 g/mL, the “Tapped Density” value [1] was 0.553 g/mL and the “bulk and tapped densities (in words)” value ([1]; compared among forms V, IX, XI and form G) was “adequate bulk and tapped densities”. For the same compound, the “change of assay and TRS (in words)” value ([2]; 40° C., 60° C., 40° C./75% RH, 60° C./75% RH at end of the first and second weeks) was “no significant change”, the “Remaining (%)” value ([2]; 40° C., 7 d) was 99.02% and the Appearance ([2]; 40° C., 7 d) was “No change”. For the same compound, the “TRS (%)” value ([2]; 40° C., 7 d) was 1.25% and 1.24%, the “Remaining (%)” value ([2]; 40° C., 14 d) was 100.12% and the Appearance ([2]; 40° C., 14 d) was “No change”. The “TRS (%)” value ([2]; 40° C., 14 d) was 1.26% and 1.27%, the “Remaining (%)” value ([2]; 40° C./75% RH, 7 d) was 99.02% and the Appearance ([2]; 40° C./75% RH, 7 d) was “No change”. The “TRS (%)” value ([2]; 40° C./75% RH, 7 d) was 1.28%, the “Remaining (%)” value ([2]; 40° C./75% RH, 14 d) was 100.75% and the Appearance ([2]; 40° C./75% RH, 14 d) was “No change”. For the same compound, the “TRS (%)” value ([2]; 40° C./75% RH, 14 d) was 1.30% and 1.29%, the “Remaining (%)” value ([2]; 60° C., 7 d) was 98.56% and the Appearance ([2]; 60° C., 7 d) was “No change”. For the same compound, the “TRS (%)” value ([2]; 60° C., 7 d) was 1.31% and 1.30%, the “Remaining (%)” value ([2]; 60° C., 14 d) was 99.72% and the Appearance ([2]; 60° C., 14 d) was “No change”. For the same compound, the “TRS (%)” value ([2]; 60° C., 14 d) was 1.33%, the “Remaining (%)” value ([2]; 60° C./75% RH, 7 d) was 98.44% and the Appearance ([2]; 60° C./75% RH, 7 d) was “No change”. The “TRS (%)” value ([2]; 60° C./75% RH, 7 d) was 1.33% and 1.31%, the “Remaining (%)” value ([2]; 60° C./75% RH, 14 d) was 99.82% and the Appearance ([2]; 60° C./75% RH, 14 d) was “No change”. The “TRS (%)” value ([2]; 60° C./75% RH, 14 d) was 1.35% and 1.36%, the “Remaining (%)” value ([2]; Light, 7 d) was 96.26% and the Appearance ([2]; Light, 7 d) was “Light yellow”. For the same compound, the “TRS (%)” value ([2]; Light, 7 d) was 1.86% and 2.09%, the “Remaining (%)” value ([2]; Light, 14 d) was 95.06% and the Appearance ([2]; Light, 14 d) was “Light yellow”. For the same compound, the “TRS (%)” value ([2]; Light, 14 d) was 4.88% and 4.32%, the Appearance ([2]; −20° C. (control), 7 d) was “No change” and the “TRS (%)” value ([2]; −20° C. (control), 7 d) was 1.22%. The Appearance ([2]; −20° C. (control), 14 d) was “No change”, the “TRS (%)” value ([2]; −20° C. (control), 14 d) was 1.23% and the “physical stability (XRPD, DSC, TGA)” value ([3]; 40° C., 60° C. and light at the end of the first and second week) was “stable”. The “physical stability (XRPD, DSC, TGA), form conversion” value (shortened to “physical stability … form conversion”) ([3]; 40° C./75% RH at the end of the first week) was “completely converted to form G”, the “physical stability … form conversion” value ([3]; 40° C./75% RH at the end of the second week) was “completely converted to form G” and the “physical stability … form conversion” value ([3]; 60° C./75% RH at the end of the first and second weeks) was “completely converted to form G”. The Hygroscopicity classification ([4]; 0-90% relative humidity) was “hygroscopic”, the “Change in Mass (%) - ref, Desorption” value ([4]; Target % P/P0 0.0) was −0.052% and the “Change in Mass (%) - ref, Sorption” value ([4]; Target % P/P0 0.0) was 0.001%. For the same compound, the “Change in Mass (%) - ref, Desorption” value ([4]; Target % P/P0 10.0) was 0.973%, the “Change in Mass (%) - ref, Hysteresis” value ([4]; Target % P/P0 10.0) was 0.164% and the “Change in Mass (%) - ref, Sorption” value ([4]; Target % P/P0 10.0) was 0.810%. The “Change in Mass (%) - ref, Desorption” value ([4]; Target % P/P0 20.0) was 1.210%, the “Change in Mass (%) - ref, Hysteresis” value ([4]; Target % P/P0 20.0) was 0.146% and the “Change in Mass (%) - ref, Sorption” value ([4]; Target % P/P0 20.0) was 1.064%. The “Change in Mass (%) - ref, Desorption” value ([4]; Target % P/P0 30.0) was 1.425%, the “Change in Mass (%) - ref, Hysteresis” value ([4]; Target % P/P0 30.0) was 0.203% and the “Change in Mass (%) - ref, Sorption” value ([4]; Target % P/P0 30.0) was 1.222%. For the same compound, the “Change in Mass (%) - ref, Desorption” value ([4]; Target % P/P0 40.0) was 1.560%, the “Change in Mass (%) - ref, Hysteresis” value ([4]; Target % P/P0 40.0) was 0.150% and the “Change in Mass (%) - ref, Sorption” value ([4]; Target % P/P0 40.0) was 1.410%. The “Change in Mass (%) - ref, Desorption” value ([4]; Target % P/P0 50.0) was 1.728%, the “Change in Mass (%) - ref, Hysteresis” value ([4]; Target % P/P0 50.0) was 0.169% and the “Change in Mass (%) - ref, Sorption” value ([4]; Target % P/P0 50.0) was 1.559%. For the same compound, the “Change in Mass (%) - ref, Desorption” value ([4]; Target % P/P0 60.0) was 1.948%, the “Change in Mass (%) - ref, Hysteresis” value ([4]; Target % P/P0 60.0) was 0.166% and the “Change in Mass (%) - ref, Sorption” value ([4]; Target % P/P0 60.0) was 1.782%. The “Change in Mass (%) - ref, Desorption” value ([4]; Target % P/P0 70.0) was 2.187%, the “Change in Mass (%) - ref, Hysteresis” value ([4]; Target % P/P0 70.0) was 0.130% and the “Change in Mass (%) - ref, Sorption” value ([4]; Target % P/P0 70.0) was 2.057%. The “Change in Mass (%) - ref, Desorption” value ([4]; Target % P/P0 80.0) was 2.503%, the “Change in Mass (%) - ref, Hysteresis” value ([4]; Target % P/P0 80.0) was 0.089% and the “Change in Mass (%) - ref, Sorption” value ([4]; Target % P/P0 80.0) was 2.414%. For the same compound, the “Change in Mass (%) - ref, Desorption” value ([4]; Target % P/P0 90.0) was 3.111% and the “Change in Mass (%) - ref, Sorption” value ([4]; Target % P/P0 90.0) was 3.111%.
